Data: PubChem BioAssay AID248 (DTP/NCI, 2004)
Where “and” joins values, the source holds several entries; their conditions need not be identical. Equal values may be shown once. Inconclusive results and toxic doses are left out. No stated cut-off is given here; in the data, active means T/C of 150% or more; inactive means T/C below 125%.

Test system: L1210 leukemia ip in BDF1 mice, survival T/C
Assay: NCI In Vivo Anticancer Drug Screen. Data for tumor model L1210 Leukemia (intraperitoneal) in B6D2F1 (BDF1) mice
Conditions: endpoint: mean survival time, higher = longer survival
How it was run: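 In this screen, tumor-bearing mice given compound are compared to those given vehicle, and their survival values are reported as a treated-to-control quotient.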

[1] = dose: 100.0 mg/kg/injection, schedule: Q01DX001 (ip), vehicle: saline
[2] = dose: 100.0 mg/kg/injection, schedule: Q01DX009 (ip), vehicle: saline with Tween-80
[3] = dose: 100.0 mg/kg/injection, schedule: Q04DX003 (ip), vehicle: saline with Tween-80
[4] = dose: 100.0 mg/kg/injection, schedule: Q04DX003 (ip), vehicle: saline
[5] = dose: 200.0 mg/kg/injection, schedule: Q01DX001 (ip), vehicle: saline
[6] = dose: 200.0 mg/kg/injection, schedule: Q01DX009 (ip), vehicle: saline with Tween-80
[7] = dose: 200.0 mg/kg/injection, schedule: Q04DX003 (ip), vehicle: saline with Tween-80
[8] = dose: 200.0 mg/kg/injection, schedule: Q04DX003 (ip), vehicle: saline
[9] = dose: 400.0 mg/kg/injection, schedule: Q01DX001 (ip), vehicle: saline
[10] = dose: 400.0 mg/kg/injection, schedule: Q01DX009 (ip), vehicle: saline with Tween-80
[11] = dose: 400.0 mg/kg/injection, schedule: Q04DX003 (ip), vehicle: saline
[12] = dose: 100.0 mg/kg/injection, schedule: Q01DX009 (ip), vehicle: Klucel (hydroxypropylcellulose) (HPC)
[13] = dose: 200.0 mg/kg/injection, schedule: Q01DX009 (ip), vehicle: Klucel (hydroxypropylcellulose) (HPC)
[14] = dose: 400.0 mg/kg/injection, schedule: Q01DX009 (ip), vehicle: Klucel (hydroxypropylcellulose) (HPC)
[15] = dose: 100.0 mg/kg/injection, schedule: Q01DX001 (ip), vehicle: Klucel (hydroxypropylcellulose) (HPC)
[16] = dose: 50.0 mg/kg/injection, schedule: Q01DX001 (ip), vehicle: saline
[17] = dose: 100.0 mg/kg/injection, schedule: Q04DX003 (ip), vehicle: Klucel (hydroxypropylcellulose) (HPC)
[18] = dose: 200.0 mg/kg/injection, schedule: Q04DX003 (ip), vehicle: Klucel (hydroxypropylcellulose) (HPC)
[19] = dose: 50.0 mg/kg/injection, schedule: Q01DX009 (ip), vehicle: Klucel (hydroxypropylcellulose) (HPC)
[20] = dose: 400.0 mg/kg/injection, schedule: Q04DX003 (ip), vehicle: Klucel (hydroxypropylcellulose) (HPC)
[21] = dose: 50.0 mg/kg/injection, schedule: Q01DX009 (ip), vehicle: saline with Tween-80

Measured: T/C

CC(C)(C)C(=O)CC(=O)C(C)(C)C
inactive: [1] 101 % of control | dose: 100.0 mg/kg/injection, schedule: Q01DX009 (ip), vehicle: other 92 % of control | [2] 91 % of control | dose: 100.0 mg/kg/injection, schedule: Q04DX002 (ip), vehicle: other 102 % of control | dose: 100.0 mg/kg/injection, schedule: Q04DX002 (ip), vehicle: saline 116 % of control | [3] 103 % of control | [4] 98 % of control | [5] 110 % of control | dose: 200.0 mg/kg/injection, schedule: Q01DX009 (ip), vehicle: other 97 % of control | [6] 97 % of control | dose: 200.0 mg/kg/injection, schedule: Q04DX002 (ip), vehicle: other 97 % of control | dose: 200.0 mg/kg/injection, schedule: Q04DX002 (ip), vehicle: saline 101 % of control | [7] 103 % of control | [8] 103 % of control | [9] 102 % of control | dose: 400.0 mg/kg/injection, schedule: Q01DX009 (ip), vehicle: other 97 % of control | [10] 91 % of control | dose: 400.0 mg/kg/injection, schedule: Q04DX002 (ip), vehicle: other 102 % of control | dose: 400.0 mg/kg/injection, schedule: Q04DX002 (ip), vehicle: saline 108 % of control | [11] 95 % of control

CCOC(=O)Nc1cc(Cl)ccc1OC
inactive: [12] 107 % of control | [13] 91 % of control | [14] 93 % of control

Cc1c(NCO)c(=O)n(-c2ccccc2)n1C
inactive: [4] 118 % of control | [8] 94 % of control | [11] 112 % of control

O=C(NCc1ccccc1)NCc1ccccc1
inactive: [15] 112 % of control | dose: 200.0 mg/kg/injection, schedule: Q01DX001 (ip), vehicle: Klucel (hydroxypropylcellulose) (HPC) 97 % of control | dose: 400.0 mg/kg/injection, schedule: Q01DX001 (ip), vehicle: Klucel (hydroxypropylcellulose) (HPC) 105 % of control

CC(=O)Nc1ccc(OC(C)(C)C)cc1
inactive: [16] 101 % of control | [1] 106 % of control | [5] 97 % of control | [9] 95 % of control

COc1c2occc2c(OC)c2c(=O)cc(/C=C/c3cccnc3)oc12
inactive: [1] 97 % of control | [5] 101 % of control | [9] 101 % of control

Clc1ccc2nccnc2c1
inactive: [17] 97 % of control | [18] 107 % of control

O=[N+]([O-])c1ccc(S(=O)(=O)N2CCN(S(=O)(=O)c3ccc([N+](=O)[O-])cc3)C2)cc1
inactive: [19] 93 % of control | [12] 87 % of control and 91 % of control | [17] 91 % of control | [13] 93 % of control | [18] 94 % of control | [14] 101 % of control | [20] 98 % of control

COc1ccc(NC(c2ccco2)P(=O)(c2ccccc2)c2ccccc2)cc1 (stereo not drawn)
inactive: [12] 91 % of control | [13] 104 % of control | [14] 98 % of control

O=C(COc1ccc(Cl)cc1)Nc1ccc(F)cc1
inactive: [12] 98 % of control | [17] 95 % of control | [13] 90 % of control | [20] 95 % of control

Brc1csc2ncccc12
inactive: [19] 102 % of control | [12] 101 % of control | [17] 97 % of control | [13] 96 % of control | [18] 100 % of control

Cc1ccnc(NS(=O)(=O)c2ccc(N=Nc3c(N)nc(N)nc3N)cc2)n1
inactive: [1] 92 % of control | [5] 97 % of control | [9] 121 % of control

CCCCOc1ccc(O)cc1
inactive: dose: 100.0 mg/kg/injection, schedule: Q04DX003 (ip), vehicle: other 117 % of control | dose: 200.0 mg/kg/injection, schedule: Q04DX003 (ip), vehicle: other 100 % of control | dose: 400.0 mg/kg/injection, schedule: Q04DX003 (ip), vehicle: other 108 % of control

CCCCCCCCCCCCOc1ccccc1
inactive: [21] 97 % of control | [2] 92 % of control | [3] 88 % of control | [6] 109 % of control | [7] 92 % of control

COc1cccc(CC(C(=O)c2ccc(O)cc2)c2ccccc2)c1 (stereo not drawn)
inactive: [1] 97 % of control | [5] 97 % of control | [9] 101 % of control

O=C1CSC(=NCCN=C2NC(=O)CS2)N1
inactive: [1] 104 % of control | [5] 111 % of control | [9] 102 % of control

O=C(Nc1ccc(Cl)c(Cl)c1)Nc1cccc2nsnc12
inactive: [12] 92 % of control | [13] 92 % of control | [14] 92 % of control

COc1ncnc2c1nnn2C1OC(CO)C(O)C1O (stereo not drawn)
inactive: dose: 25.0 mg/kg/injection, schedule: Q01DX001 (ip), vehicle: saline with Tween-80 102 % of control | dose: 100.0 mg/kg/injection, schedule: Q01DX001 (ip), vehicle: saline with Tween-80 104 % of control

COc1ccc(C)cc1NC(=O)Nc1ccc(SC)cc1
inactive: [12] 87 % of control | [13] 95 % of control | [14] 90 % of control

CNC(=O)O/N=C/c1cccc(/C=N/OC(=O)NC)c1
inactive: [3] 97 % of control | [7] 97 % of control | dose: 400.0 mg/kg/injection, schedule: Q04DX003 (ip), vehicle: saline with Tween-80 103 % of control

CN(C)Cc1ccncc1
inactive: [16] 101 % of control | [21] 93 % of control | dose: 50.0 mg/kg/injection, schedule: Q04DX003 (ip), vehicle: saline with Tween-80 92 % of control | [1] 101 % of control | [2] 101 % of control | [3] 92 % of control | [5] 101 % of control | [6] 96 % of control | [7] 95 % of control

CC12CCC(=O)C=C1CCC1C2CCC2(C)C(OC(=O)c3ccc(N)cc3)CCC12 (stereo not drawn)
inactive: dose: 100.0 mg/kg/injection, schedule: Q04DX002 (ip), vehicle: saline with Tween-80 94 % of control | dose: 200.0 mg/kg/injection, schedule: Q04DX002 (ip), vehicle: saline with Tween-80 91 % of control | dose: 400.0 mg/kg/injection, schedule: Q04DX002 (ip), vehicle: saline with Tween-80 94 % of control

N#CC(CC(=O)OCc1ccccc1)NC(=O)OCc1ccccc1 (stereo not drawn)
inactive: [2] 92 % of control | [6] 89 % of control | [10] 97 % of control

O=c1[nH]c(-c2cccc([N+](=O)[O-])c2)nc2[nH]ncc12
inactive: dose: 25.0 mg/kg/injection, schedule: Q01DX001 (ip), vehicle: Klucel (hydroxypropylcellulose) (HPC) 94 % of control | dose: 50.0 mg/kg/injection, schedule: Q01DX001 (ip), vehicle: Klucel (hydroxypropylcellulose) (HPC) 94 % of control | [15] 98 % of control
